Assay results as given in patent publication US20130053243A1, “PLANTS HAVING INCREASED TOLERANCE TO HERBICIDES” (BASF SE, priority 2010, published 2013).

Legend:
[1] = molecular target: T1, Arabidopsis HPPD variant Q293H (Arabidopsis thaliana, UniProt P93836, Q293H); assay: HPPD activity assay, mutant enzyme; assay type: biochemical
T1 construct: His6 (N); made in house; host or cells: E. coli BL21 (DE3)
Protocol: (§1) HPPD produces homogentisic acid and CO2 from 4-hydroxyphenylpyruvate (4-HPP) and O2. The activity assay for HPPD is based on the analysis of homogentisic acid by reversed phase HPLC.
(§2) The assay mixture can contain 150 mM potassium phosphate buffer pH 7.0, 50 mM L-ascorbic acid, 1 μM FeSO4 and 7 μg of purified enzyme in a total volume of 1 ml.
(§3) Inhibitors are dissolved in DMSO (dimethylsulfoxide) to a concentration of 20 mM or 0.5 mM, respectively. From this stock solution serial five-fold dilutions are prepared in DMSO, which are used in the assay. The respective inhibitor solution accounts for 1% of the assay volume. Thus, final inhibitor concentrations range from 200 μM to 2.5 nM or from 5 μM to 63 pM, respectively.
(§4) After a preincubation of 30 min the reaction is started by adding 4-HPP to a final concentration of 0.1 mM. The reaction is allowed to proceed for 120 min at room temperature. The reaction is stopped by addition of 100 μl of 4.5 M phosphoric acid.
(§5) The sample is extracted on an Oasis® HLB cartridge 3 cc/60 mg (Waters) that was preequilibrated with 63 mM phosphoric acid. L-ascorbic acid is washed out with 3 ml of 63 mM phosphoric acid. Homogentisate is eluted with 1 ml of a 1:1 mixture of 63 mM phosphoric acid and methanol (w/w).
(§6) 10 μl of the eluate is analyzed by reversed phase HPLC on a Symmetry® C18 column (particle size 3.5 μm, dimensions 4.6×100 mm; Waters) using 5 mM H3PO4/15% ethanol (w/w) as an eluent.
(§7) Homogentisic acid is detected electrochemically and quantified by measuring peak areas (Empower software; Waters).
(§8) Activities are normalized by setting the uninhibited enzyme activity to 100%. IC50 values are calculated using non-linear regression.
(§9) The assay mixture can contain 150 mM potassium phosphate buffer pH 7.0, 50 mM L-ascorbic acid, 100 μM Catalase (Sigma-Aldrich), 1 μM FeSO4 and 0.2 units of purified HPPD enzyme in a total volume of 505 μl. 1 unit is defined as the amount of enzyme that is required to produce 1 nmol of HGA per minute at 20° C.
(§10) After a preincubation of 30 min the reaction is started by adding 4-HPP to a final concentration of 0.05 mM. The reaction is allowed to proceed for 45 min at room temperature. The reaction is stopped by the addition of 50 μl of 4.5 M phosphoric acid. The sample is filtered using a […] pore size PVDF filtration device.
(§11) 5 μl of the cleared sample is analyzed on an Atlantis T3 column (particle size 3 μm, dimensions 3×50 mm; Waters) by isocratic elution using 90% 10 mM NaH2PO4 pH 2.2, 10% methanol (v/v).
(§12) HGA is detected electrochemically at 750 mV (mode: DC; polarity: positive) and quantified by integrating peak areas (Empower software; Waters).
(§13) Inhibitors are dissolved in DMSO (dimethylsulfoxide) to a concentration of 0.5 mM. From this stock solution serial five-fold dilutions are prepared in DMSO, which are used in the assay. The respective inhibitor solution accounts for 1% of the assay volume. Thus, final inhibitor concentrations range from 5 μM to 320 pM, respectively. Activities are normalized by setting the uninhibited enzyme activity to 100%. IC50 values are calculated using non-linear regression.
(§14) Purified, mutant HPPD enzymes are obtained by the methods described above. Dose response and kinetic measurements are carried out using the described HPPD activity assay. Apparent michaelis constants (Km) and maximal reaction velocities (Vmax) are calculated by non-linear regression with the software GraphPad Prism 5 (GraphPad Software, La Jolla, USA) using a substrate inhibition model. Apparent kcat values are calculated from Vmax assuming 100% purity of the enzyme preparation. Weighted means (by standard error) of Km and IC50 values are calculated from at least three independent experiments. The Cheng-Prusoff equation for competitive inhibition (Cheng, Y. C.; Prusoff, W. H. Biochem Pharmacol 1973, 22, 3099-3108) is used to calculate dissociation constants (Ki). Examples of the data obtained are depicted in Table 13.

[2] = molecular target: T2, Arabidopsis HPPD variant Q293N (Arabidopsis thaliana, UniProt P93836, Q293N); assay: HPPD activity assay, mutant enzyme; assay type: biochemical
T2 construct: His6 (N); made in house; host or cells: E. coli BL21 (DE3)
Protocol: as §1, §2, §3, §4, §5, §6, §7, §8, §9, §10, §11, §12, §13, §14

[3] = test system: transgenic soybean plants, event AV3641 (AtHPPD); assay: Greenhouse spray test, transgenic soybean T0 cuttings; assay type: in vivo, Glycine max; conditions: two weeks after treatment, scale 0 (no injury) to 9 (complete death)
Protocol: (§15) Transgenic plants expressing heterologous HPPD or HST enzymes are tested for tolerance against coumarone-derivative herbicides in greenhouse experiments.
(§16) For post emergence treatment, the test plants are first grown to a height of 3 to 15 cm, depending on the plant habit, and only then treated with the herbicides. For this purpose, the test plants are either sown directly and grown in the same containers, or they are first grown separately and transplanted into the test containers a few days prior to treatment.
(§17) For testing of T0 plants, cuttings can be used. In the case of soybean plants, an optimal shoot for cutting is about 7.5 to 10 cm tall, with at least two nodes present. Each cutting is taken from the original transformant (mother plant) and dipped into rooting hormone powder (indole-3-butyric acid, IBA). The cutting is then placed in oasis wedges inside a bio-dome. Wild type cuttings are also taken simultaneously to serve as controls. The cuttings are kept in the bio-dome for 5-7 days and then transplanted to pots and then acclimated in the growth chamber for two more days. Subsequently, the cuttings are transferred to the greenhouse, acclimated for approximately 4 days, and then subjected to spray tests as indicated. Depending on the species, the plants are kept at 10-25° C. or 20-35° C. The test period extends over 3 weeks. During this time, the plants are tended and their response to the individual treatments is evaluated. Herbicide injury evaluations are taken at 2 and 3 weeks after treatment. Plant injury is rated on a scale of 0 to 9, 0 being no injury and 9 being complete death.

[4] = test system: transgenic soybean plants, event AV3639 (AtHPPD); assay: as above; assay type: in vivo, Glycine max; conditions: two weeks after treatment, scale 0 (no injury) to 9 (complete death)
Protocol: as §15, §16, §17

[5] = test system: transgenic soybean plants, event AV3653 (AtHPPD); assay: as above; assay type: in vivo, Glycine max; conditions: two weeks after treatment, scale 0 (no injury) to 9 (complete death)
Protocol: as §15, §16, §17

[6] = test system: transgenic soybean plants, event AV3646 (CrHPPD1); assay: as above; assay type: in vivo, Glycine max; conditions: two weeks after treatment, scale 0 (no injury) to 9 (complete death)
Protocol: as §15, §16, §17

[7] = test system: transgenic soybean plants, event LG4564; assay: as above; assay type: in vivo, Glycine max; conditions: event LG4564, CrHPPD2 (head unclear), two weeks after treatment, scale 0 (no injury) to 9 (complete death)
Protocol: as §15, §16, §17

T1 sequence (P93836 whole entry Q293H): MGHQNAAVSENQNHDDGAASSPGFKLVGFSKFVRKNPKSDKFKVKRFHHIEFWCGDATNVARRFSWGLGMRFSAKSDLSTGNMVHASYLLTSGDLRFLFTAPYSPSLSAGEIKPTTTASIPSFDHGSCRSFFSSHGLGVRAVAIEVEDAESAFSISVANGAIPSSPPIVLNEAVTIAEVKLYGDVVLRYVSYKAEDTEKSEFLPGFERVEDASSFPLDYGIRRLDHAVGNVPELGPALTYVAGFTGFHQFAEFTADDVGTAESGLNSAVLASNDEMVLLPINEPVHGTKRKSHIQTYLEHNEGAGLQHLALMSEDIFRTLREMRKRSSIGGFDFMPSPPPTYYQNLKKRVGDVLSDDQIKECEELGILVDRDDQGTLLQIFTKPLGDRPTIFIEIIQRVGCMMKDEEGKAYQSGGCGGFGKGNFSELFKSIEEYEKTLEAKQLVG
T2 sequence (P93836 whole entry Q293N): as the sequence (P93836 whole entry Q293H) above, with H293N counted along it

Cc1c(C(=O)c2cnn(C)c2O)ccc(S(C)(=O)=O)c1C1=NOCC1 [Topramezone, reference compound]
Ki [1]: 14 nM
Ki [2]: 36 nM
Injury evaluation (plant injury rating) ([3]; 6.25 g/ha): 4
Injury evaluation (plant injury rating) ([3]; 12.5 g/ha): 4
Injury evaluation (plant injury rating) ([4]; 6.25 g/ha): 4
Injury evaluation (plant injury rating) ([4]; 12.5 g/ha): 5
Injury evaluation (plant injury rating) ([5]; 6.25 g/ha): 2
Injury evaluation (plant injury rating) ([5]; 12.5 g/ha): 3
Injury evaluation (plant injury rating) ([6]; 6.25 g/ha): 6
Injury evaluation (plant injury rating) ([6]; 12.5 g/ha): 7
Injury evaluation (plant injury rating) ([7]; 6.25 g/ha): 3
Injury evaluation (plant injury rating) ([7]; 12.5 g/ha): 4

CC1=NOC(c2c(Cl)ccc(C3=C(O)c4ncccc4N(CC(F)F)S3(=O)=O)c2Cl)C1 (centres unmarked) [Inhibitor 1, 3-[2,4-dichloro-3-(3-methyl-4,5-dihydroisoxazol-5-yl)phenyl]-1-(2,2-difluoroethyl)-2,2-dioxo-pyrido[3,2-c]thiazin-4-ol]
Ki [1]: 23 nM
Ki [2]: 41 nM
Injury evaluation (plant injury rating) ([3]; 50 g/ha): 2
Injury evaluation (plant injury rating) ([3]; 100 g/ha): 2
Injury evaluation (plant injury rating) ([3]; 200 g/ha): 3
Injury evaluation (plant injury rating) ([4]; 50 g/ha): 3
Injury evaluation (plant injury rating) ([4]; 100 g/ha): 2
Injury evaluation (plant injury rating) ([4]; 200 g/ha): 3
Injury evaluation (plant injury rating) ([5]; 50 g/ha): 3
Injury evaluation (plant injury rating) ([5]; 100 g/ha): 3
Injury evaluation (plant injury rating) ([5]; 200 g/ha): 3
Injury evaluation (plant injury rating) ([6]; 50 g/ha): 3
Injury evaluation (plant injury rating) ([6]; 100 g/ha): 4
Injury evaluation (plant injury rating) ([6]; 200 g/ha): 4
Injury evaluation (plant injury rating) ([7]; 50 g/ha): 3
Injury evaluation (plant injury rating) ([7]; 100 g/ha): 3
Injury evaluation (plant injury rating) ([7]; 200 g/ha): 4
